Data set [1] addresses Bcl-2 (Homo sapiens, UniProt P10415). Briefly: Competitive fluorescence polarization assay (FPA), Bim BH3 peptide. Format: binding. For orientation: In fluorescence polarisation assays a small probe gives low polarisation when free and higher when bound to something large.
For data set [2], the target named is T1, Bfl-1 (Homo sapiens, UniProt Q16548).
T1 sequence (Q16548 1-175): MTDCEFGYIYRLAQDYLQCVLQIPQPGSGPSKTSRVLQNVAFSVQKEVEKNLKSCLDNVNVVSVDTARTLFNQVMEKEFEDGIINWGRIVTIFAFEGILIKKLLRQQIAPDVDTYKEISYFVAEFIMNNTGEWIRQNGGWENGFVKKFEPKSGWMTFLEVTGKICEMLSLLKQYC
Description: Competitive fluorescence polarization assay (FPA). Format: binding.

For data set [3], the system named is PC3ML cells. Description: Cell viability, ATP-LITE assay. Format: cell-based, human. As to conditions: Table 3; ATP-LITE assay; heading: EC50 PC3ML; read-out: EC50 PC3ML. In outline: (§1)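 Human cancer lines were seeded at 2000 (H460, H1299), 3000 (PC3) or 10,000 (RS11846) cells/well in F12 or RPMI1640 with 5% FBS. Compounds were added in 0.1% DMSO 24 h after seeding. Viability was read by ATP-LITE luminescence after 72 h and normalized to DMSO controls.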

Data set [4] concerns H460 human lung cell line. Briefly: Cell viability, ATP-LITE assay. Format: cell-based. The conditions noted are these: ATP-LITE assay, read-out: EC50 H460. In outline:
as §1

Data set [5] deals with human lymphoma RS11846 cell line. Description: Apoptosis, Annexin V-FITC and propidium iodide assay. It counts as cell-based. As to conditions: Table 3; Annexin V-FITC and propidium iodide assay; heading: EC50 RS11846; read-out: EC50 RS11846.
Description: The apoptotic activity of the compounds against RS11846 cells was assessed by staining with Annexin V- and propidium iodide (PI). Lymphoma cell line, RS11846, was cultured in RPMI 1640 medium (Mediatech Inc., Herndon, Va. 20171) containing 10% fetal bovine serum (Mediatech Inc., Herndon, Va. 20171) and Penicillin/Streptomycin (Mediatech Inc., Herndon, Va. 20171). […] The percentage of viable cells was determined by FITC-Annexin V- and propidium iodide (PI)-labeling, using an Apoptosis Detection kit (BioVision Inc.), and analyzing stained cells by flow cytometry (FACSort; Bectin-Dickinson, Inc.; Mountain View, Calif.). Cells that were annexin-V-negative and PI-negative were considered viable.
Data set [6] relates to BP3 human B-cell lymphoma cell line. Description: Annexin V-FITC and propidium iodide assay. It counts as cell-based. As to conditions: Annexin V-FITC and propidium iodide assay, read-out: EC50 BP3.
Data set [7] is described as follows: Chemical stability of solid compounds at room temperature (HPLC, LCMS). As to conditions: in air, Apogossypol in the absence of ascorbic acid. The text has this: The stability of compound was monitored using a combination of HPLC and LCMS.
A short description of data set [8]: Plasma stability. It counts as in vitro ADME, rat. On the procedure:
Plasma Stability. A 20 μL aliquot of a 10 mM solution in DMSO of the test compound was added to 2.0 mL of heparinized rat plasma (Lampire, P1-150N) to obtain a 100 μM final solution. The mixture was incubated for 1 h at 37.5° C. Aliquots of 100 μL were taken (0, 30 min, 1 h) and diluted with 200 μL of MeOH containing internal standard.

Data set [9] is described as follows: Liver microsomal stability. Format: in vitro ADME, rat. The conditions noted are these: Table 6; rat liver microsomes, 1 h. From the text:
Liver Microsomal Stability.
For orientation: Microsomes from liver hold many membrane-bound enzymes, among them those of drug oxidation.

Data set [10] in a line: PAMPA cell membrane permeability. It counts as in vitro ADME. The conditions noted are these: Table 11; Low/Medium, not defined. The text has this: PAMPA is parallel artificial membrane permeation assay.
Background: In PAMPA a lipid-coated filter parts donor from acceptor wells.

Data set [11] has as its system B6Bcl-2 transgenic mice. In short, it runs like this:
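B6 line BCL-2 transgenic mice (human BCL-2 fused to IgH locus/enhancer, Balb/c background) sacrificed 24 h post-treatment by lethal i.p. Avertin. Spleen removed and weighed, fixed 3 days in z-FIX for H&E and TUNEL histology.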

In data set [12] the test system is Balb/c mice. Description: Oral toxicity of gossypol vs apogossypol in normal mice. Format: in vivo, mouse. The conditions noted are these: daily dosing studies in mice. The procedure:
Compounds or vehicle control were dosed 15 times over 3 weeks, giving compounds daily for 5 consecutive days (Monday-Friday), resting on weekends.
Spleens were removed and weighed.
Whole blood (250 μl) was collected in EDTA-coated glass tubes (purple top; MICROTAINER Brand Tube with EDTA, Catalogue #365973, Becton, Dickinson and Company, New Jersey 07417-1885) via either cardiac puncture or severing the brachial artery of anesthetized mice. After thorough mixing, specimens were analyzed using a VetScan HM2 (Abaxis Inc., Union City, Calif. 94587) hematology analyzer, measuring white blood cell count (WBC), red blood cell count (RBC), platelet (PLT) count, leukocyte differential (including % lymphocyte, % monocyte and % granulocyte), hematocrit (Ht), and hemoglobin (Hb).
(Eppendorf Centrifuge 5415C) for 2 minutes to separate serum from cells and fibrin clot. The resulting serum specimens were analyzed using an automated blood chemistry analyzer (“COBAS MIRA Classic”; Roche, Indianapolis, Ind. 46250-0414) to measure alanine aminotransferase (ALT) and aspartate aminotransferase AST), blood urea nitrogen (BUN), and […].

The test system of data set [13] is BCL-2 transgenic mice. Briefly: Oral efficacy study in BCL-2 transgenic mice, QDx5 for 3 weeks. As to conditions: low dose 0.06 mmol/kg oral. On the procedure:
The volume of administration was 10 ml/kg, i.e., typically 0.2 mL per 20 gm mouse. […] Age-matched, sex-matched mice were typically dosed 5 times weekly, using a regiment of daily dosing 5 consecutive days (Monday through Friday), followed by resting for 2 days, before resuming dosing. […] At conclusion of treatments, mice were sacrificed via intra-peritoneal (i.p.) injection of 0.7 ml of Avertin and whole blood was collected into Yellow-Top Serum Separator tubes (Becton Dickinson Vacutainer Systems Becton Dickinson and Company, Franklin Lakes, N.J. 07417-1885). Spleens were removed and weighed.
Age-matched and sex-matched BCL-2 transgenic mice were used for efficacy studies. BCL-2 transgenic mice spontaneously developed low grade B-cell lymphoma as characterized by splenomegaly, as a function of time. In BCL-2 transgenic mice, the disease progression can be divided into two stages; at the first stage, the disease is characterized by splenomegaly as a result of expansion of B-cells in spleen due to over-expressed BCL-2 in B6 mice, and at the second stage, another genetic hit(s) may strike, resulting in disseminated lymphoma as characterized by bulky lymphadenopathy as well as splenomegaly.
In this study, BCL-2 transgenic mice at the first stage were used for this efficacy study. […] At conclusion of treatment, BCL-2 transgenic mice were sacrificed via intraperitoneal injection of 0.7 ml of avertin (anesthetic solution) and spleen was removed and weighed. Splenocytes were isolated by the use of mouse erythrocyte lysing kit (RD Systems). Total splenocyte count was determined by trypane blue exclusion assays. % B-cell count was determined by FACS analysis after staining cells with CD-5, a B-cell marker.

For data set [14], the system named is H460 cell line. As to conditions: studied by other groups; cited from earlier work.
For data set [15], the system named is HeLa cells. Briefly: HeLa cells viability assay. It counts as cell-based. The conditions noted are these: Homo sapiens, Table 12. On the procedure: Relative numbers of viable cells was determined by XTT assay. Briefly, in a 96-well plate, we added 50 μl of a mixture of 1 mg/ml of XTT (2,3-bis(2-methoxy-4-nitro-5-sulfophenyl)-5-[(phenylamino)carbonyl]-2H-tetrazolium hydroxide) (Polysciences, Washington, Pa.) containing 0.025 mM PMS (phenazine methosulfate) to each well. The 96-well plates were reincubated for an additional 4 hours to allow for XTT formazan production. Then, the contents of each plate were mixed and optical densities were determined at a wavelength of 450 nm (OD450). Net OD450 was determined after subtracting OD450 of blank wells. […] Immunoblot analysis of BCL-XL was accomplished as previously described.

Structures are written as SMILES. Like-named read-outs stand apart in the source and are kept apart here. A value given as a limit tells only on which side of the number the result lay.

Sequence of Bcl-2 (P10415 whole entry): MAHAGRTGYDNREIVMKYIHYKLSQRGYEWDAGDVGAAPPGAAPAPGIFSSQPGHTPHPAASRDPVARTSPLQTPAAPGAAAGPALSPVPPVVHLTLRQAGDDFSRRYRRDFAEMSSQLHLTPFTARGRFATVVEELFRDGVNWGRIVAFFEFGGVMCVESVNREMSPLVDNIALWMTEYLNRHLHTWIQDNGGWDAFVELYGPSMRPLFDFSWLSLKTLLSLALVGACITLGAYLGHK

One may read the IC50 as the midpoint of a concentration-inhibition curve. Usually EC50 stands for the concentration that produces a half-maximal response. `Cc1cc2c(C(C)C)c(O)c(O)cc2c(O)c1-c1c(C)cc2c(C(C)C)c(O)c(O)cc2c1O` [Apogossypol, 5,5′-diisopropyl-3,3′-dimethyl-2,2′-binaphthyl-1,1′,6,6′,7,7′-hexanol, reference compound]: the IC50 in data set [1] is 4.3 µM; in data set [2], above 10 µM. Moreover, the EC50 in data set [3] was found to be 10.4 µM; in data set [4], 3.5 µM; in [4] (Table 3, heading: EC50 H460) it was 3.5 µM; in data set [5], 5 µM; in data set [6], 4.7 µM; in data set [6] (Table 3, heading: EC50 BP3) it was 4.7 µM. In data set [7], the “degraded after 60 days at room temperature” value is around 80%. Further, in [8] (1 hour), the “degraded after 1 hour incubation in rat plasma” value was determined as 47%. In addition, in data set [8] (Table 6, rat plasma, 1 h), the “Plasma stability (T = 1 h)” value amounted to 53%. Besides, the “Microsomal Stability (T = 1 h)” value in data set [9] turned out to be 64%. Further, the “Cell Permeability” value in data set [10] was “Low”. Besides, the Tox in data set [11] (Bcl-2 transgenic mouse, single ip injection 72 μmol/kg) is 0. Moreover, the “percentage of maximum reduction in spleen weight (maximal biological activity)” value in data set [11] (single ip 72 μmol/kg, maximum shrinkage no more than 50%) was 40%. In data set [12], the “tolerated doses, times higher than gossypol” value is reported as 2-4. Besides, the shrinkage of spleen entry in data set [13] is “induced shrinkage of spleen to a significant extent”. In addition, the tolerability entry in data set [13] is on record as “well tolerated”.

Take `COC1=CC(c2cc3ccccc3[nH]2)=N/C1=C\c1[nH]c(C)cc1C` [GX15-070]: the IC50 in [14] is 3.85 µM.

Turning to `O=c1c(O)cccc2cc(O)c(O)c(O)c12` [Purpurogallin], 6.5 µM corresponded to half-maximal inhibition in data set [15] (IC50).
